Results published in patent US20240285501A1, “HAIR GROWTH AGENT” (ADJUVANT HOLDINGS CO., LTD., priority 2021, published 2024).

What was measured:
[1] = test system: VEGF gene expression in human dermal papilla cells; test: Evaluation of human dermal papilla cell VEGF gene expression (real-time PCR); format: cell-based; conditions: 72 hours, relative to negative control group, GAPDH internal standard, FIG. 1
Method: The VEGF gene is expressed in dermal papilla cells, and contributes to expression of such effects as increase in hair shaft diameter and improving maximum hair shaft length and improving hair shaft elongation rate and hair shaft growth promotion at head hair, beard, eyebrows, and/or eyelashes. Human dermal papilla cells were therefore used, and evaluation was carried out with respect to increase in VEGF gene expression for the respective components.
Human dermal papilla cells (Catalog No. CA60205a; derived from person; Toyobo Co., Ltd. (Japan)) were purchased, testing and evaluation being carried out with maintenance and culture of cells being performed as described in the protocol.
As drugs for testing, drug solutions of the following respective concentrations (final concentrations) were prepared and used. • Comparative Example 1: 100 μM adenosine • Working Example 1: 0.3125 μM phytosphingosine • Working Example 2: 1.25 μM phytosphingosine • Working Example 3: Liquid mixture of 100 μM adenosine and 1.25 μM phytosphingosine
A 24-well plate was seeded with human dermal papilla cells so as to obtain 6×10^3 thereof per well. […] The GAPDH gene was used as an internal standard, the amount of VEGF gene expression being calculated relative to the negative control group. […]
300 μL of lysis buffer RL was added thereto per well, and the cells were lysed by pipetting. […] Concentration of the recovered RNA was measured using a NanoDrop Lite (Catalog No. ND-LITE; Thermo Fisher Scientific K.K.), and this was stored at −80° C. until the following cDNA creation procedure.
A FastGene scriptase II cDNA synthesis 5× Ready Mix (Catalog No. NE-LS64; Nippon Genetics Co., Ltd. (Japan)) was used to synthesize cDNA. Dilution with RNase Free Water was carried out so as to cause concentration of total RNA produced in a new tube to be […], 4 μL of FastGene scriptase II cDNA synthesis 5× Ready Mix was added to 16 μL of this sample solution, and this was agitated by vortexing. […]

[2] = test system: vascular endothelial growth factor (VEGF) expression in human dermal papilla cells; conditions: cited from earlier work

SMILES | change in amount of expression of the VEGF gene [1] | expression of vascular endothelial growth factor (VEGF) [2]
CCCCCCCCCCCCCC[C@@H](O)[C@@H](O)[C@@H](N)CO [Working Example 2, phytosphingosine] | increase in dosage-dependent fashion in the amount of expression of the VEGF gene as compared with the control group | –
CCCCCCCCCCCCCC[C@@H](O)[C@@H](O)[C@@H](N)CO [Working Example 1, phytosphingosine] | increase in dosage-dependent fashion in the amount of expression of the VEGF gene as compared with the control group | –
CCCCCCCCCCCCCC[C@@H](O)[C@@H](O)[C@@H](N)CO [phytosphingosine] | significantly greater than that which was produced as a result of action of adenosine | –
Nc1ncnc2c1ncn2[C@@H]1O[C@H](CO)[C@@H](O)[C@H]1O [adenosine] | – | promotes expression of vascular endothelial growth factor (VEGF)
